In brackets after ≈: the same amount, converted by molar mass. Like-named read-outs stand apart in the source and are kept apart here. Starred links: 1 amine or outer side, 2 acyl side, 3 side chain; linkers in the order of their positions; H or OH if unused. Positions of bridges follow the written chain, without caps; N, C: chain ends. Non-standard residues stand in square brackets, D forms with d. Residues, ends and D or L forms follow the SMILES beside them. *: point of attachment. hTyr(3S-OH,4S-OH,3'-OSO3H) = N[C@H](C(=O)O)[C@H](O)[C@@H](O)c1ccc(O)c(OS(=O)(=O)O)c1; Orn(4R-OH,5R-OH) = O=C([C@H](C[C@@H](O)[C@@H](O)N[*:3])N[*:1])[*:2]; Pro(3S-OH,4S-Me) = C[C@H]1CN[C@H](C(=O)O)[C@H]1O; X1 = CCCCCOc1ccc(-c2cc(-c3ccc(C(=O)*)cc3)no2)cc1; Gln(3R-OH) = NC(=O)C[C@@H](O)[C@H](N)C(=O)O; Hyp = O=C(O)[C@@H]1C[C@@H](O)CN1
What was measured:
[1] = tested on: C. albicans ATCC 90028; test: Antifungal MIC assay (broth microdilution in YNB); assay type: cell-based, Candida albicans; conditions: Candida albicans
Description: (§1) Yeast strains: Candida albicans (ATCC 90028, NCCLS 11), Cryptococcus neoformans (ATCC 208821, H99 type strain), Candida tropicalis (ATCC 750, type strain), Candida glabrata (ATCC 90030, NCCLS 84) and Cryptococcus deuterogattii (ATCC 32609, type strain) were obtained from the American Type Culture Collection (ATCC). Cryptococcus deuterogattii (CBS 7750), Candida auris (CBS 10913) and Candida auris (CBS 12373) were obtained from the CBS‐KNAW culture collection. The strains were maintained on glycerol/YPD (yeast extract‐peptone dextrose) broth (20:80 v/v) at −80 °C.
(§2) Antifungal minimum inhibitory concentration (MIC) assay: The cobalt complexes and antifungal control compounds were serially diluted in 50 μL of Yeast Nitrogen Broth (YNB; BD, Cat No. 233520 supplemented with 2 % glucose and 10 mM ammonium sulfate) two‐fold across the wells of non‐binding surface (NBS) 96‐well plates (Corning; Cat. No. 3641). Plates were set up in quadruplicate for each strain tested, and two biological replicates were conducted on separate assay days.
(§3) Yeast strains were cultured from glycerol onto YPD (Becton Dickinson 242720) agar at 30 °C for 72 h. For each strain, a minimum of five single colonies were taken from the agar plate and dissolved in sterile water and adjusted to form a yeast suspension of 1×10^6 to 5×10^6 CFU mL^−1 (as determined by OD530). The suspension was subsequently diluted into YNB media, and added to each well of the compound containing plates, giving a final cell density of 2.5×10^3 CFU mL^−1 and a total volume of 100 μL. Plates were covered and incubated at 35 °C for 36 h without shaking.
(§4) Growth inhibition of all strains was determined visually where the MIC was recorded as the lowest compound concentration with no visible growth. Fluconazole (Sigma F8929), ketoconazole (Sigma K1003) and micafungin (Sigma SML2288) were used as internal positive inhibitor controls for every strain tested.

[2] = tested on: C. auris CBS 10913; test: Antifungal MIC assay (broth microdilution in YNB); assay type: cell-based, Candida auris; conditions: Candidozyma auris
Description: as §1, §2, §3, §4

[3] = tested on: C. auris CBS 12373; test: Antifungal MIC assay (broth microdilution in YNB); assay type: cell-based, Candida auris; conditions: Candidozyma auris
Description: as §1, §2, §3, §4

[4] = tested on: C. glabrata ATCC 90030; test: Antifungal MIC assay (broth microdilution in YNB); assay type: cell-based, Candida glabrata; conditions: Nakaseomyces glabratus
Description: as §1, §2, §3, §4

[5] = tested on: C. tropicalis ATCC 750; test: Antifungal MIC assay (broth microdilution in YNB); assay type: cell-based, Candida tropicalis; conditions: Candida tropicalis
Description: as §1, §2, §3, §4

[6] = tested on: C. deuterogattii ATCC 32609; test: Antifungal MIC assay (broth microdilution in YNB); assay type: cell-based, Cryptococcus deuterogattii; conditions: Cryptococcus deuterogattii
Description: as §1, §2, §3, §4

[7] = tested on: C. deuterogattii CBS 7750; test: Antifungal MIC assay (broth microdilution in YNB); assay type: cell-based, Cryptococcus deuterogattii; conditions: Cryptococcus deuterogattii
Description: as §1, §2, §3, §4

[8] = tested on: C. neoformans ATCC 208821; test: Antifungal MIC assay (broth microdilution in YNB); assay type: cell-based, Cryptococcus neoformans; conditions: Cryptococcus neoformans
Description: as §1, §2, §3, §4

[9] = tested on: Staphylococcus aureus ATCC 43300 (MRSA); test: CO-ADD bacterial broth microdilution MIC assay; assay type: cell-based; conditions: Staphylococcus aureus, 18 h, read-out: MIC Sa (Staphylococcus aureus ATCC 43300, MRSA)
Procedure: (§5) CO-ADD High Throughput Screening
(§6) Bacterial broth microdilution minimum inhibitory concentration (MIC) assay Bacterial strains were cultured in Cation-adjusted Mueller Hinton broth (CAMHB; Bacto Laboratories 212322) at 37 °C overnight. A sample of each culture was then diluted 40-fold in fresh CAMHB and incubated at 37 °C for 1.5-3 h. The resultant mid-log phase cultures were diluted with CAMHB (CFU/mL measured by OD600), then added to each well of the compound-containing plates (384-well non-binding surface (NBS) plates; Corning CLS3640), giving a cell density of 5 × 10^5 CFU/mL and a total volume of 50 µL. Plates were covered and incubated at 37 °C for 18 h without shaking. Inhibition of bacterial growth was determined measuring absorbance at 600 nm (OD600), using media only as negative control and bacteria without inhibitors as positive control. MIC values were determined as the lowest concentration at which the growth was inhibited at ≥ 80%. Colistin sulfate (Sigma C4461) and vancomycin HCl (Sigma 861987) were used as positive inhibitor controls on each plate for Gram-negative and Gram-positive bacteria, respectively.
(§7) Figure S1. 1H NMR (400 MHz) of [Co(ATS)(DMAP)2]NO3 (3) in DMSO-d6.
(§8) (1 picture or pasted object on this page, not shown here)

[10] = tested on: Acinetobacter baumannii ATCC 19606; test: CO-ADD bacterial broth microdilution MIC assay; assay type: cell-based; conditions: CAMHB, 37 °C, 18 h, ≥ 80% inhibition
Procedure: as §5, §6, §7, §8

[11] = tested on: Escherichia coli ATCC 25922; test: CO-ADD bacterial broth microdilution MIC assay; assay type: cell-based; conditions: CAMHB, 37 °C, 18 h, ≥ 80% inhibition
Procedure: as §5, §6, §7, §8

[12] = tested on: Pseudomonas aeruginosa ATCC 27853; test: CO-ADD bacterial broth microdilution MIC assay; assay type: cell-based; conditions: CAMHB, 37 °C, 18 h, ≥ 80% inhibition
Procedure: as §5, §6, §7, §8

[13] = tested on: Klebsiella pneumoniae ATCC 700603 (K6; ESBL SHV-18); assay type: cell-based; conditions: CAMHB, 37 °C, 18 h, ≥ 80% inhibition
Procedure: as §5, §6, §7, §8

[14] = ATCC90028, Table S1, read-out: MIC Candida albicans ATCC 90028
[15] = ATCC90028, range of MICs, n=8, 35 °C, 36 h, visual, read-out: MIC C. albicans ATCC 90028
[16] = CBS10913, Table S1, read-out: MIC Candida auris CBS 10913
[17] = CBS10913, range of MICs, n=8, 35 °C, 36 h, visual, read-out: MIC C. auris CBS 10913
[18] = CBS12373, Table S1, read-out: MIC Candida auris CBS 12373
[19] = CBS12373, range of MICs, n=8, 35 °C, 36 h, visual, read-out: MIC C. auris CBS 12373
[20] = ATCC90030, Table S1, read-out: MIC Candida glabrata ATCC 90030
[21] = ATCC90030, range of MICs, n=8, 35 °C, 36 h, visual, read-out: MIC C. glabrata ATCC 90030
[22] = ATCC750, Table S1, read-out: MIC Candida tropicalis ATCC 750
[23] = ATCC750, range of MICs, n=8, 35 °C, 36 h, visual, read-out: MIC C. tropicalis ATCC 750
[24] = ATCC32609, Table S1, read-out: MIC Cryptococcus deuterogattii ATCC 32609
[25] = ATCC32609, range of MICs, n=8, 35 °C, 36 h, visual, read-out: MIC C. deuterogattii ATCC 32609
[26] = CBS7750, Table S1, read-out: MIC Cryptococcus deuterogattii CBS 7750
[27] = CBS7750, range of MICs, n=8, 35 °C, 36 h, visual, read-out: MIC C. deuterogattii CBS 7750
[28] = ATCC208821, Table S1, read-out: MIC Cryptococcus neoformans ATCC 208821
[29] = ATCC208821, range of MICs, n=8, 35 °C, 36 h, visual, read-out: MIC C. neoformans ATCC 208821

| Compound | MIC [1, 14] [mg/L] | MIC [1, 15] [µM] | MIC [2, 16] [mg/L] | MIC [2, 17] [µM] | MIC [3, 18] [mg/L] | MIC [3, 19] [µM] | MIC [4, 20] [mg/L] | MIC [4, 21] [µM] | MIC [5, 22] [mg/L] | MIC [5, 23] [µM] | MIC [6, 24] [mg/L] | MIC [6, 25] [µM] | MIC [7, 26] [mg/L] | MIC [7, 27] [µM] | MIC [8, 28] [mg/L] | MIC [8, 29] [µM] | also measured |
| --- | --- | --- | --- | --- | --- | --- | --- | --- | --- | --- | --- | --- | --- | --- | --- | --- | --- |
| OC(Cn1cncn1)(Cn1cncn1)c1ccc(F)cc1F [FCZ, Fluconazole, reference compound] | 2 | 6.53 | 16 | 52.2 | > 64 | > 209 | > 64 | > 209 | > 64 | > 209 | 8 to 16 | 26.1 to 52.2 | 8 | 26.1 | 16 | 52.2 |  |
| CC(=O)N1CCN(c2ccc(OCC3COC(Cn4ccnc4)(c4ccc(Cl)cc4Cl)O3)cc2)CC1 (stereo not shown) [KCZ, Ketoconazole, reference compound] | 0.5 | ≤ 0.94 | 0.5 | ≤ 0.94 | 2 | 3.76 | 32 | 60.2 | 16 | 30.1 | 1 | 1.88 | 0.5 to 1 | 0.94 to 1.88 | 1 to 2 | 1.88 to 3.76 |  |
| CCCCCOc1ccc(-c2cc(-c3ccc(C(=O)N[C@H]4C[C@@H](O)[C@@H](O)NC(=O)[C@@H]5[C@@H](O)[C@@H](C)CN5C(=O)[C@H]([C@H](O)CC(N)=O)NC(=O)[C@H]([C@H](O)[C@@H](O)c5ccc(O)c(OS(=O)(=O)O)c5)NC(=O)[C@@H]5C[C@@H](O)CN5C(=O)[C@H]([C@@H](C)O)NC4=O)cc3)no2)cc1 [MFG, Micafungin, reference compound] (X1-[Orn(4R-OH,5R-OH)]T[Hyp][hTyr(3S-OH,4S-OH,3'-OSO3H)][Gln(3R-OH)][Pro(3S-OH,4S-Me)]; lactam 1-C) |  |  |  |  |  |  |  |  |  |  |  |  |  |  |  |  | MIC ([1]; ATCC90028, 36 h, read-out: MIC C. albicans ATCC 90028): ≤ 0.39 µM; MIC ([1]; ATCC90028, read-out: MIC Candida albicans ATCC 90028): 0.5 mg/L; MIC ([2]; CBS10913, 36 h, read-out: MIC C. auris CBS 10913): ≤ 0.39 µM; MIC ([3]; CBS12373, 36 h, read-out: MIC C. auris CBS 12373): ≤ 0.39 µM; MIC ([3]; CBS12373, read-out: MIC Candida auris CBS 12373): 0.5 mg/L; MIC ([4]; ATCC90030, 36 h, read-out: MIC C. glabrata ATCC 90030): ≤ 0.39 µM; MIC ([4]; ATCC90030, read-out: MIC Candida glabrata ATCC 90030): 0.5 mg/L; MIC ([5]; ATCC750, 36 h, read-out: MIC C. tropicalis ATCC 750): ≤ 0.39 µM; MIC ([5]; ATCC750, read-out: MIC Candida tropicalis ATCC 750): 0.5 mg/L; MIC ([6]; ATCC32609, 36 h, read-out: MIC C. deuterogattii ATCC 32609): > 49.5 µM; MIC ([6]; ATCC32609, read-out: MIC Cryptococcus deuterogattii ATCC 32609): > 64 mg/L; MIC ([7]; CBS7750, 36 h, read-out: MIC C. deuterogattii CBS 7750): > 49.5 µM; MIC ([7]; CBS7750, read-out: MIC Cryptococcus deuterogattii CBS 7750): > 64 mg/L; MIC ([8]; ATCC208821, 36 h, read-out: MIC C. neoformans ATCC 208821): > 49.5 µM; MIC ([8]; ATCC208821, read-out: MIC Cryptococcus neoformans ATCC 208821): > 64 mg/L |
| CN[C@H](CC(C)C)C(=O)N[C@H]1C(=O)N[C@@H](CC(N)=O)C(=O)N[C@H]2C(=O)N[C@H]3C(=O)N[C@H](C(=O)N[C@H](C(=O)O)c4cc(O)cc(O)c4-c4cc3ccc4O)[C@H](O)c3ccc(c(Cl)c3)Oc3cc2cc(c3O[C@@H]2O[C@H](CO)[C@@H](O)[C@H](O)[C@H]2O[C@H]2C[C@](C)(N)[C@H](O)[C@H](C)O2)Oc2ccc(cc2Cl)[C@H]1O [Van, Vancomycin, reference compound] |  |  |  |  |  |  |  |  |  |  |  |  |  |  |  |  | MIC [9]: 1 mg/L (≈ 0.69 µM) |
| Colistin [reference compound] |  |  |  |  |  |  |  |  |  |  |  |  |  |  |  |  | MIC Ab (Acinetobacter baumannii ATCC 19606) [10]: 0.25 mg/L; MIC Ec (Escherichia coli ATCC 25922) [11]: 0.125 mg/L; MIC Pa (Pseudomonas aeruginosa ATCC 27853) [12]: 0.25 mg/L; MIC Kp (Klebsiella pneumoniae ATCC 700603) [13]: 0.25 mg/L |

From paper PMC7855930, “Nontoxic Cobalt(III) Schiff Base Complexes with Broad‐Spectrum Antifungal Activity” (Chemistry (Weinheim an Der Bergstrasse, Germany), 2020)
